According to patent US11740249B2, “Recognition of cellular target binding by a bioactive agent using intracellular bioluminescence resonance energy transfer” (Promega Corporation, priority 2012, dated 2023):

Tests used:
[1] = biological target: T1, NANOLUC-HDAC6 fusion protein (Homo sapiens, UniProt Q9UBN7); assay: Intracellular BRET tracer binding, NANOLUC-HDAC6 in HEK293 cells (Example 1); conditions: live HEK293 cells, compared to SAHA-TMR (PBI-4967)
T1 construct: expressed in transfected cells; host or cells: HEK293
T1 sequence (Q9UBN7 with tags, fused parts or gaps): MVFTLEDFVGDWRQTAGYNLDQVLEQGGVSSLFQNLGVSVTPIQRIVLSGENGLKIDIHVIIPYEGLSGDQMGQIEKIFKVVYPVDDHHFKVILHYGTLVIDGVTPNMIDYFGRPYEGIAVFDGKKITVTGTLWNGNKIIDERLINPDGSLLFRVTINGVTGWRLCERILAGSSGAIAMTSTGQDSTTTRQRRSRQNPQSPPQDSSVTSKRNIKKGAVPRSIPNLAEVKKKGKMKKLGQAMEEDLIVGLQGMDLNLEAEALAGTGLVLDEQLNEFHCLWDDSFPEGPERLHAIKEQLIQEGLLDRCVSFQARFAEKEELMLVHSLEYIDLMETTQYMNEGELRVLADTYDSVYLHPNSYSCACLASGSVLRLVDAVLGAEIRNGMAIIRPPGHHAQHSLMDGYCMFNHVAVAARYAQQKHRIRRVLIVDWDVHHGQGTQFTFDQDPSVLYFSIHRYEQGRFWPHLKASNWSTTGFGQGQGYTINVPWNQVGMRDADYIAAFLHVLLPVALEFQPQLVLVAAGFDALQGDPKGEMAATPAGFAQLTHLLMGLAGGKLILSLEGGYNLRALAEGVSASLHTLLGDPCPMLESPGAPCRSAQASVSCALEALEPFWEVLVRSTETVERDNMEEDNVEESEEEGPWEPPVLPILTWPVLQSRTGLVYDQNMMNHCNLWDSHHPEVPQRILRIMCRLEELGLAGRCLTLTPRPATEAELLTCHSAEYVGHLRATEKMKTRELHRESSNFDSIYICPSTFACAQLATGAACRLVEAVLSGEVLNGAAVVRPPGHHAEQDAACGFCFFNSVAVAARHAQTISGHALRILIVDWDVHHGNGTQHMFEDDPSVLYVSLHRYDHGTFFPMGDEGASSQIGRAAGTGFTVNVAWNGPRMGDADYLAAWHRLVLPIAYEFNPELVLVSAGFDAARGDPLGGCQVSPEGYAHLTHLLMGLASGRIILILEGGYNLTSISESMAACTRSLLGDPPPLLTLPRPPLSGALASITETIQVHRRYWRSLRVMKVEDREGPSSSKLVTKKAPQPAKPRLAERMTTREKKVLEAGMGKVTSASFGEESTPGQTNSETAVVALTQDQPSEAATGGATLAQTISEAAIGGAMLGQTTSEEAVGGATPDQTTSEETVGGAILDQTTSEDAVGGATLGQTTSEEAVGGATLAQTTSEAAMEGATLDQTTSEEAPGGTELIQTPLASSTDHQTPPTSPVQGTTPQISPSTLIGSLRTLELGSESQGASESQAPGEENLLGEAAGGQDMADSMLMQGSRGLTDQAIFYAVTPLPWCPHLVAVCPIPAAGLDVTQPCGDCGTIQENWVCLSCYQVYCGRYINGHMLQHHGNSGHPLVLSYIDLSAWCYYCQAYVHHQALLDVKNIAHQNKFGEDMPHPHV
Protocol: In this example, conjugates of suberoylanilide hydroxamic acid (SAHA), an inhibitor of histone deacetylase 6 (HDAC6), and a PBI dye (SAHA-TOM (PBI-4968); See FIGS. 8A-B) or standard dye (SAHA-TAMRA (PBI-4967); See FIGS. 8A-B) were utilized in an intracellular BRET assay using a NANOLUC-HDAC fusion protein (SEQ ID NO: 3).
HEK293 cells were transfected using FuGene HD (Promega Corp.) with plasmid DNA encoding a NANOLUC-HDAC6 fusion protein. NANOLUC-HDAC6 DNA was diluted 1:1000 with a promoterless carrier DNA (pGEM3Z) to yield a final concentration of 50 ng/well total DNA in 96-well plate format (at a seeding density of 20,000 cells/well). Twenty-four hours post-transfection, cells were then incubated with serially-diluted tracer in the presence or absence of a molar excess of unlabeled SAHA (as a specificity control). Following equilibration with the drug tracers, furimazine (a coelenterazine derivative substrate for NANOLUC; Promega Corp.) was added at a concentration of 20 uM, and BRET was quantified on a Varioskan luminometer. The specific BRET signal was calculated by subtracting the non-specific signal (in the presence of unlabeled SAHA) from the signal generated from the SAHA tracer alone.

NANOLUC-HDAC6 = biological target: T2, NANOLUC-HDAC6 (Homo sapiens, UniProt Q9UBN7); assay: BRET compound panel screen by competitive displacement of SAHA-TOM, NANOLUC-HDAC6 in HEK293 cells (Example 15); format: binding; conditions: 1 uM SAHA-TOM (PBI-4968), 2 h
T2 construct: expressed in transfected cells; host or cells: HEK293
T2 sequence (Q9UBN7 with tags, fused parts or gaps): as above

Compound	specific BRET signal ([1]; NANOLUC-HDAC6 DNA diluted 1:1000)	EC50 value for binding within living cells [1]	binding efficiency to HDAC6 (competitive displacement of tracer) (NANOLUC-HDAC6)
O=C(CCCCCCC(=O)Nc1ccc(CNC(=O)c2ccc(C(=O)O)c(C3=c4cc5c6c(c4Oc4c3cc3c7c4CCCN7CCCC3)CCC[N+]=6CCCC5)c2)cc1)NO [PBI-4968]	superior, specific BRET signal	left-shifted	–
O=C(CCCCCCC(=O)Nc1ccccc1)NO [SAHA, suberoylanilide hydroxamic acid]	–	–	high binding efficiency
